Assay results reported in patent US20240336654A1, “ANTIMICROBIAL PEPTIDOMIMETICS” (SPEXIS AG, priority 2021, published 2024).
Where a SMILES comes first, the peptide text is derived from it. Bridges are numbered along the chain shown (N, C = ends). [ ]: non-standard residue; d: D form. The star is where a group is joined. Val(Nα-amidino) = CC(C)[C@H](NC(=N)N)C(=O)*; dDab(iPr) = CC(C)NCC[C@@H](N)C(=O)O; Hyp = O=C(O)[C@@H]1C[C@@H](O)CN1; Agb = N=C(N)NCC[C@H](N)C(=O)O; Pen = CC(C)(S)[C@H](N)C(=O)O; X1 = CC[C@H](NC(=N)N)C(=O)*; dDab = NCC[C@@H](N)C(=O)O; Orn = NCCC[C@H](N)C(=O)O; Dab = NCC[C@H](N)C(=O)O

Experiments:
Format in all cases: cell-based
[1] = system: Escherichia coli ATCC 25922; settings: ATCC 25922
Method in brief: (§1)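 The MIC is the lowest peptide concentration, in μg/mL, with no visible growth after 18-20 h incubation at 35 °C. Serial two-fold peptide dilutions in water with 0.002% P-80 final were added to bacteria in cation-adjusted MHII broth, about 5×10^5 CFU/mL, following modified CLSI microdilution.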

[2] = system: Escherichia coli MCR-1 Af 45; settings: MCR-1 Af 45
Method in brief: as §1

[3] = system: Klebsiella pneumoniae SSI3010; settings: SSI3010
Method in brief: as §1

[4] = system: human red blood cells (hRBC); settings: red cells of human, 1 h, 200 μg/mL
Method in brief: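 Percent hemolysis derived from OD540 of supernatants relative to full lysis by 2.5% Triton X-100 (PBS baseline). Washed fresh human erythrocytes (20% v/v) were exposed to 200 μg/mL peptide for 1 h at 37 °C with shaking.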

Compound | Escherichia coli ATCC 25922 MIC [1] [µg/mL] | Escherichia coli MCR-1 Af45 MIC [2] [µg/mL] | Klebsiella pneumoniae SSI3010 MIC [3] [µg/mL] | Hemolysis at 0.2 g/L [4] [%]
CC[C@H](C)[C@H](NC(=O)[C@@H]1C[C@@H](O)CN1C(=O)[C@@H](NC(=N)N)C(C)C)C(=O)N[C@@H]1C(=O)N[C@@H](Cc2ccc(O)cc2)C(=O)N[C@@H](CO)C(=O)N[C@@H](CC(N)=O)C(=O)N[C@@H](CCCNC(=N)N)C(=O)N[C@@H](CCN)C(=O)N[C@@H]([C@@H](C)O)C(=O)N[C@H](CCNC(C)C)C(=O)N[C@@H](CCCCN)C(=O)N[C@@H](CCN)C(=O)N[C@@H](CCN)C(=O)N[C@H](C(=O)N[C@@H](Cc2ccc(O)cc2)C(=O)O)CSSC1(C)C [Example 71, Gua-Val-Hyp-Ile-Pen-Tyr-Ser-Asn-Arg-Dab-Thr-^DDab(iPr)-Lys-Dab-Dab-Cys-Tyr] ({Val(Nα-amidino)}-[Hyp]I[Pen]YSNR[Dab]T[dDab(iPr)]K[Dab][Dab]CY-OH; disulfide 3-14) | 0.0625 | 0.0625 | 0.125 | <1
CC[C@H](C)[C@H](NC(=O)[C@@H]1C[C@@H](O)CN1C(=O)[C@@H](NC(=N)N)C(C)C)C(=O)N[C@@H]1C(=O)N[C@@H](Cc2ccc(O)cc2)C(=O)N[C@@H](CCN)C(=O)N[C@@H](CC(N)=O)C(=O)N[C@@H](CCCNC(=N)N)C(=O)N[C@@H](CCN)C(=O)N[C@@H]([C@@H](C)O)C(=O)N[C@H](CCN)C(=O)N[C@@H](CCCCN)C(=O)N[C@@H]([C@@H](C)O)C(=O)N[C@@H](Cc2ccc(O)cc2)C(=O)N[C@H](C(=O)N[C@@H](Cc2ccc(O)cc2)C(=O)O)CSSC1(C)C [Example 72, Gua-Val-Hyp-Ile-Pen-Tyr-Dab-Asn-Arg-Dab-Thr-^DDab-Lys-Thr-Tyr-Cys-Tyr] ({Val(Nα-amidino)}-[Hyp]I[Pen]Y[Dab]NR[Dab]T[dDab]KTYCY-OH; disulfide 3-14) | 0.5 | 0.5 | 0.5 | <1
CC[C@H](C)[C@@H]1NC(=O)[C@H]([C@@H](C)O)NC(=O)[C@H](CCCCN)NC(=O)[C@@H](CCN)NC(=O)[C@H]([C@@H](C)O)NC(=O)[C@H](CCN)NC(=O)[C@H](CCCNC(=N)N)NC(=O)[C@H](CC(N)=O)NC(=O)[C@H](CCN)NC(=O)[C@H](Cc2ccc(O)cc2)NC(=O)[C@@H](NC(=O)[C@@H](NC(=O)[C@@H]2C[C@@H](O)CN2C(=O)[C@@H](NC(=N)N)C(C)C)[C@@H](C)CC)C(C)(C)SSC[C@@H](C(=O)N[C@@H](Cc2ccc(O)cc2)C(=O)O)NC1=O [Example 73, Gua-Val-Hyp-Ile-Pen-Tyr-Dab-Asn-Arg-Dab-Thr-^DDab-Lys-Thr-Ile-Cys-Tyr] ({Val(Nα-amidino)}-[Hyp]I[Pen]Y[Dab]NR[Dab]T[dDab]KTICY-OH; disulfide 3-14) | 0.5 | 0.5 | 0.5 | <1
CC[C@H](C)[C@H](NC(=O)[C@@H]1C[C@@H](O)CN1C(=O)[C@@H](NC(=N)N)C(C)C)C(=O)N[C@@H]1C(=O)N[C@@H](Cc2ccc(O)cc2)C(=O)N[C@@H](CCN)C(=O)N[C@@H](CC(N)=O)C(=O)N[C@@H](CCCNC(=N)N)C(=O)N[C@@H](CCN)C(=O)N[C@@H]([C@@H](C)O)C(=O)N[C@H](CCN)C(=O)N[C@@H](CCCCN)C(=O)N[C@@H]([C@@H](C)O)C(=O)N[C@@H](CO)C(=O)N[C@H](C(=O)N[C@@H](Cc2ccc(O)cc2)C(=O)O)CSSC1(C)C [Example 74, Gua-Val-Hyp-Ile-Pen-Tyr-Dab-Asn-Arg-Dab-Thr-^DDab-Lys-Thr-Ser-Cys-Tyr] ({Val(Nα-amidino)}-[Hyp]I[Pen]Y[Dab]NR[Dab]T[dDab]KTSCY-OH; disulfide 3-14) | 0.25 | 0.25 | 0.25 | <1
CC[C@H](C)[C@H](NC(=O)[C@@H]1C[C@@H](O)CN1C(=O)[C@@H](NC(=N)N)C(C)C)C(=O)N[C@@H]1C(=O)N[C@@H](Cc2ccc(O)cc2)C(=O)N[C@@H](CO)C(=O)N[C@@H](CC(N)=O)C(=O)N[C@@H](CCCNC(=N)N)C(=O)N[C@@H](CCN)C(=O)N[C@@H]([C@@H](C)O)C(=O)N[C@H](CCN)C(=O)N[C@@H](CCCCN)C(=O)N[C@@H](CCN)C(=O)N[C@@H](CCNC(=N)N)C(=O)N[C@H](C(=O)N[C@@H](Cc2ccc(O)cc2)C(=O)O)CSSC1(C)C [Example 75, Gua-Val-Hyp-Ile-Pen-Tyr-Ser-Asn-Arg-Dab-Thr-^DDab-Lys-Dab-Agb-Cys-Tyr] ({Val(Nα-amidino)}-[Hyp]I[Pen]YSNR[Dab]T[dDab]K[Dab][Agb]CY-OH; disulfide 3-14) | 0.125 | 0.0625 | 0.125 | <1
CC[C@H](NC(=N)N)C(=O)N1C[C@H](O)C[C@H]1C(=O)N[C@H](C(=O)N[C@@H]1C(=O)N[C@@H](Cc2ccc(O)cc2)C(=O)N[C@@H](CO)C(=O)N[C@@H](CC(N)=O)C(=O)N[C@@H](CCCNC(=N)N)C(=O)N[C@@H](CCN)C(=O)N[C@@H]([C@@H](C)O)C(=O)N[C@H](CCN)C(=O)N[C@@H](CCCCN)C(=O)N[C@@H](CCN)C(=O)N[C@@H](CCN)C(=O)N[C@H](C(=O)N[C@@H](Cc2ccc(O)cc2)C(=O)O)CSSC1(C)C)[C@@H](C)CC [Example 76, Gua-Abu-Hyp-Ile-Pen-Tyr-Ser-Asn-Arg-Dab-Thr-^DDab-Lys-Dab-Dab-Cys-Tyr] (X1-[Hyp]I[Pen]YSNR[Dab]T[dDab]K[Dab][Dab]CY-OH; disulfide 3-14) | 1 | 0.5 | 0.25 | <1
CC[C@H](C)[C@H](NC(=O)[C@@H]1C[C@@H](O)CN1C(=O)[C@@H](NC(=N)N)C(C)C)C(=O)N[C@@H]1C(=O)N[C@@H](Cc2ccc(O)cc2)C(=O)N[C@@H](CO)C(=O)N[C@@H](CC(N)=O)C(=O)N[C@@H](CCCNC(=N)N)C(=O)N[C@@H](CCN)C(=O)N[C@@H]([C@@H](C)O)C(=O)N[C@H](CCN)C(=O)N[C@@H](CCCCN)C(=O)N[C@@H](CCCN)C(=O)N[C@@H](CO)C(=O)N[C@H](C(=O)N[C@@H](Cc2ccc(O)cc2)C(=O)O)CSSC1(C)C [Example 77, Gua-Val-Hyp-Ile-Pen-Tyr-Ser-Asn-Arg-Dab-Thr-^DDab-Lys-Orn-Ser-Cys-Tyr] ({Val(Nα-amidino)}-[Hyp]I[Pen]YSNR[Dab]T[dDab]K[Orn]SCY-OH; disulfide 3-14) | 0.25 | 0.5 | 0.25 | <1
CC[C@H](C)[C@H](NC(=O)[C@@H]1C[C@@H](O)CN1C(=O)[C@@H](N)C(C)C)C(=O)N[C@H]1CCNC(=O)CC[C@@H](C(=O)N[C@@H](Cc2ccc(O)cc2)C(=O)O)NC(=O)[C@H](CCN)NC(=O)[C@H](CCN)NC(=O)[C@H](CCCCN)NC(=O)[C@@H](CCN)NC(=O)[C@H]([C@@H](C)O)NC(=O)[C@H](CCN)NC(=O)[C@H](CCCNC(=N)N)NC(=O)[C@H](CC(N)=O)NC(=O)[C@H](CO)NC(=O)[C@H](Cc2ccc(O)cc2)NC1=O [Example 78, Val-Hyp-Ile-Dab-Tyr-Ser-Asn-Arg-Dab-Thr-^DDab-Lys-Dab-Dab-Glu-Tyr] (H-V[Hyp]I[Dab]YSNR[Dab]T[dDab]K[Dab][Dab]EY-OH; lactam 4-15) | 0.125 | 0.125 | 0.25 | <1
CC[C@H](C)[C@H](NC(=O)[C@@H]1C[C@@H](O)CN1C(=O)[C@@H](N)C(C)C)C(=O)N[C@H]1CCC(=O)NCC[C@@H](C(=O)N[C@@H](Cc2ccc(O)cc2)C(=O)O)NC(=O)[C@H](CCN)NC(=O)[C@H](CCN)NC(=O)[C@H](CCCCN)NC(=O)[C@@H](CCN)NC(=O)[C@H]([C@@H](C)O)NC(=O)[C@H](CCN)NC(=O)[C@H](CCCNC(=N)N)NC(=O)[C@H](CC(N)=O)NC(=O)[C@H](CO)NC(=O)[C@H](Cc2ccc(O)cc2)NC1=O [Example 79, Val-Hyp-Ile-Glu-Tyr-Ser-Asn-Arg-Dab-Thr-^DDab-Lys-Dab-Dab-Dab-Tyr] (H-V[Hyp]IEYSNR[Dab]T[dDab]K[Dab][Dab][Dab]Y-OH; lactam 4-15) | 0.125 | 0.0625 | 0.25 | <1
CC[C@H](C)[C@H](NC(=O)[C@@H]1C[C@@H](O)CN1C(=O)[C@@H](NC(=N)N)C(C)C)C(=O)N[C@@H]1C(=O)N[C@@H](Cc2ccc(O)cc2)C(=O)N[C@@H]([C@@H](C)O)C(=O)N[C@@H](CC(N)=O)C(=O)N[C@@H](CCCNC(=N)N)C(=O)N[C@@H](CCN)C(=O)N[C@@H](CO)C(=O)N[C@H](CCN)C(=O)N[C@@H](CCCCN)C(=O)N[C@@H](CCN)C(=O)N[C@@H](CCN)C(=O)N[C@H](C(=O)N[C@@H](Cc2ccc(O)cc2)C(=O)O)CSSC1(C)C [Example 80, Gua-Val-Hyp-Ile-Pen-Tyr-Thr-Asn-Arg-Dab-Ser-^DDab-Lys-Dab-Dab-Cys-Tyr] ({Val(Nα-amidino)}-[Hyp]I[Pen]YTNR[Dab]S[dDab]K[Dab][Dab]CY-OH; disulfide 3-14) | 0.125 | 0.0625 | 0.125 | <1
